Source: ChEMBL document CHEMBL3507680, “University of Dundee, Gates Library screen for HepG2 cell viability”

test: Human HepG2 cell viability assay in 384 well format; assay type: toxicity, cell-based; set-up: dose 125 nL, time 70.5 hour; concentration not given beside the values; details: HepG2 cells, read-out: Inhibition

Row | SMILES | cytotoxicity at 70.5 h
1 | COc1ccc(-c2csc(N)c2C#N)cc1OC | -13%
2 | O=C(c1ccc[nH]1)N1C[C@H](OCc2ccccn2)[C@H]2COC[C@H]21 | -5.92%
3 | O=c1ccc2c([nH]1)CCC(NCc1ccncc1)C2 (configuration not stated) | -2.51%
4 | O=C1CC2(CCN(c3nncs3)C2)CN1c1cncnc1 (configuration not stated) | -0.39%
5 | CCCC(=O)N1CCC2(CC1)CN(Cc1cccc(C)n1)C(=O)CO2 | 0.856%
6 | COc1ccc(Br)c(C(=O)NCC2CCN(C(=O)c3ccoc3)CC2)c1 | 0.959%
7 | CC(=O)NCCN1CCC(c2cccs2)CC1 | 0.738%
8 | O=C(NCCN1CCC(c2cccs2)CC1)Nc1cccs1 | -3.14%
9 | CSCC(C)(O)CNC(=O)c1cc(Br)ccc1Cl (configuration not stated) | 16.5%
10 | O=S(=O)(NCC1(O)CCOc2ccccc21)c1cccs1 (configuration not stated) | 3.15%
11 | COC(=O)c1sccc1S(=O)(=O)NCC1(O)CCOc2ccccc21 (configuration not stated) | -4.94%
12 | O=S(=O)(NCC1(O)CCOc2ccccc21)c1ccc(Br)s1 (configuration not stated) | 3.29%
13 | O=C(c1cnn2c1OCCC2)N1CCN(C/C=C/c2ccccc2)CC1 | 7.17%
14 | O=C(NCc1ccccn1)c1nnn(-c2ccc(Br)cc2)n1 | 10.5%
15 | Cn1c(C(F)(F)F)nn(CCNC(=O)c2cnc3ccccc3n2)c1=O | -2.86%
16 | COC(=O)c1sccc1S(=O)(=O)N1CCC(Oc2ncccc2Cl)CC1 | 2.59%
17 | N#Cc1ccc(OC2CCN(C(=O)c3ccc4c(c3)OCO4)CC2)nc1 | 17.3%
18 | CN(C)S(=O)(=O)N1CCC(Oc2cnccn2)CC1 | -0.386%
19 | O=C(c1ccc2c(c1)OCO2)N1CCCSCC1CN1CCCC1 (configuration not stated) | 0.782%
20 | COCCN(Cc1ccoc1)C(=O)c1ccccc1Cl | 6.96%
21 | Cc1cc(S(=O)(=O)N2CCC(S(C)(=O)=O)CC2)ccc1F | -0.414%
22 | COc1ccc(S(=O)(=O)N2CCC(S(C)(=O)=O)CC2)cc1C | 5.77%
23 | O=C(CC1CCCC1)NCCn1ccc(-c2ccccn2)n1 | 4.96%

Row | SMILES | cytotoxicity at 70.5 h
24 | Cn1nc(CNC(=O)C2CCCC2)cc1C1CC1 | 38.9%
25 | O=S(=O)(Nc1cnn(C2CCOCC2)c1)c1ccc(F)c(F)c1 | 1.31%
26 | O=S(=O)(Nc1cnn(C2CCOCC2)c1)c1ccc2c(c1)CCO2 | -5.29%
27 | O=C(NCCC1=CCCCC1)C1CCCN(c2ccc3nncn3n2)C1 (configuration not stated) | 9.17%
28 | O=C(CSC1CCc2ccccc2NC1=O)NCCc1ccco1 (configuration not stated) | 7.74%
29 | CCOC(=O)N1CCN(C(=O)c2sc(-c3ccccc3F)nc2C)CC1 | -11.8%
30 | COc1ccccc1NC(=O)CSC1CCc2ccccc2NC1=O (configuration not stated) | -10.1%
31 | O=C(Cn1ccc2c(Cl)cccc21)N1CCC2(CC1)OCCO2 | -4.3%
32 | CC(NC(=O)N1CCN(c2ccc(Cl)cc2)CC1)C(=O)N1CCSCC1 (configuration not stated) | -12.6%
33 | O=C(Cn1cc(-c2ccccc2)ncc1=O)Nc1ccncc1 | -13.4%
34 | CC(C)C(NC(=O)N1CCN(c2ccc(Cl)cc2)CC1)C(=O)NC1CC1 (configuration not stated) | -6.65%
35 | O=C1CC(c2ccsc2)c2sc(C(=O)O)c(-c3ccccc3)c2N1 (configuration not stated) | -11.4%
36 | Cc1[nH]/c(=N\C(=O)c2csc(NC3CC3)n2)sc1C | -5.91%
37 | CCOc1ccc(Cl)cc1CNCCCn1ccnc1 | 23.2%
38 | CCOc1cccc(CNc2ccccc2C(=O)OC)c1O | 3.64%
39 | O=S(=O)(NC1=NCN(CCc2cccs2)CN1)c1ccc(F)cc1 | -20.8%
40 | CCCNC(=O)c1cc2c([nH]c1=O)CC(c1cccs1)CC2=O (configuration not stated) | -19.4%
41 | Cc1cccc(N2Cc3nc(=O)[nH]n3C2=O)c1 | -14.3%
42 | Cc1c(C)n(-c2ccccn2)c2nc3c(c(N)c12)CCCC3 | -9.17%
43 | O=C1N(c2ccccc2)Cc2nc(=O)[nH]n21 | -27.8%
44 | CNc1oc(-c2ccc(OC)c(S(=O)(=O)N3CCCCC3)c2)nc1C#N | -18%
45 | CSCCC(CO)NC(=O)c1sc(-c2ccccc2Cl)nc1C (configuration not stated) | -23.9%
46 | CC(C)c1nnc2ccc(N3CCC(C(N)=O)CC3)nn12 | 3.97%

Row | SMILES | cytotoxicity at 70.5 h
47 | O=C(Cc1csc(-c2ccc(Cl)cc2)n1)NC(C(=O)O)c1ccccc1 (configuration not stated) | -9.96%
48 | COc1ccc(N2CCC(C(=O)/N=c3/[nH]ccs3)CC2)nn1 | -7.23%
49 | CNc1oc(-c2cc(S(=O)(=O)N3CCCCCC3)c(C)o2)nc1C#N | -20.9%
50 | COC(=O)CNC(=O)CSCc1nc(O)c2cc(C(C)C)sc2n1 | -14.3%
51 | CCOC(=O)N1CCN(c2nc(NC)c3ccccc3n2)CC1 | -15.5%
52 | Cc1ccc(-c2csc(N)c2C#N)cc1 | -16.3%
53 | Cc1ccc(CNS(=O)(=O)CC2=NC(=O)n3cccc3C2=O)cc1 | -10.8%
54 | CCOc1ccc(-n2nnc(C(=O)O)c2-c2ccncc2)cc1 | 12.9%
55 | Cc1cc2nc(SCC(=O)N3CCCC3)n(-c3ccccc3)c(=O)c2[nH]1 | -21.9%
56 | Cc1ccc(F)c(-n2nnc(C(=O)O)c2-c2ccncc2)c1 | -5.82%
57 | CCOc1ccc(-n2nnc(C(=O)O)c2-c2ccccn2)cc1 | -11.9%
58 | CCN(c1ccc(C(=O)NCCCN2CCCC2)cc1)S(=O)(=O)CC | -8.8%
59 | CC(C)n1c(=O)nc2n1C(=O)N(c1ccc(F)cc1)C2 | -10.1%
60 | O=C(COc1coc(CN2CCCCC2)cc1=O)NCc1ccccc1 | -15.4%
61 | COc1cccc2ccn(CCC(=O)N3CCCC(C(=O)O)C3)c12 (configuration not stated) | -22.2%
62 | CNc1nc2c(s1)C(c1c(F)cccc1Cl)CC(=O)N2 (configuration not stated) | -6.14%
63 | Nc1cc(-c2c[nH]nc2C2CCCN2CCCc2ccccc2)ccn1 (configuration not stated) | -1.57%
64 | CCn1nccc1CN(C)C(=O)Cn1nc(C)c(C)c1C | -4.43%
65 | CC(C)Nc1nc(O)cc(C(C)n2ncc3ccccc3c2=O)n1 (configuration not stated) | -5.33%
66 | CCN(CC)c1nc(O)cc(C(C)n2ncc3ccccc3c2=O)n1 (configuration not stated) | -4.03%
67 | Cc1cc(C(F)(F)F)nc(C2COCCN2S(C)(=O)=O)n1 (configuration not stated) | -6.03%
68 | CC(C)N1CC(C(=O)NCc2ccc(S(=O)(=O)N(C)C)cc2)CC1=O (configuration not stated) | -7.28%
69 | CNc1cccc(CC2COCCN(C(=O)c3cncs3)C2)n1 (configuration not stated) | 1.43%

Row | SMILES | cytotoxicity at 70.5 h
70 | Cc1ccc(C2CCCN(S(=O)(=O)N3CCOCC3)C2)nc1 (configuration not stated) | -4.54%
71 | Cc1nc(NCC2CCOCC2)cc(C2CCN2S(C)(=O)=O)n1 (configuration not stated) | -1.73%
72 | CN(CC1(C)COC1)C(=O)c1cc(-c2ccnn2C)nc2ccccc12 | -0.845%
73 | Cn1cc(CN2CCC(c3cc(CCO)[nH]n3)C2)cn1 (configuration not stated) | -8.16%
74 | Cc1cc(C)nc(C2CCN(C(=O)CO)CC2)n1 | -6.07%
75 | CO[C@@H]1CC[C@@H](N(C)C(=O)c2cn3cc(C)ccc3n2)[C@H]1O | -9%
76 | O=C(O)c1cccc(CN2CCCC(c3ccn[nH]3)C2)c1 (configuration not stated) | -4.41%
77 | CC1(C(=O)N2CCN(c3ncccn3)CC2)CNCCO1 (configuration not stated) | -8.07%
78 | O=C(O)c1ccccc1CN1CCCC(Cc2ccn[nH]2)C1 (configuration not stated) | -8.52%
79 | CSc1nsc(NC(=O)c2cc(C3CC3)nn2C)n1 | -6.09%
80 | CCCc1cc(C(=O)Nc2nc(SC)ns2)n(C)n1 | -13.2%
81 | O=C(O)c1cccc(CN2CCCC(Cc3ccn[nH]3)C2)c1 (configuration not stated) | -10.2%
82 | CN1CCC(c2nnc3n2CCN(S(=O)(=O)c2ccccc2Cl)C3)CC1 | -5.89%
83 | CC(C)Nc1nc(O)cc(C2CC(=O)N(C3CCCCC3)C2)n1 (configuration not stated) | -3.62%
84 | COCCC(=O)NCCc1nc(N(C)C)ncc1-c1ccncc1 | -3.62%
85 | Cc1noc(C)c1C(=O)N1CCC2(CCc3ccccc3C(=O)N2)C1 (configuration not stated) | -4.04%
86 | O=C(C1CCCCC1)N1CCCC([C@@H]2C[C@H](C(F)F)n3ncnc3N2)C1 (some centres not stated) | -5.82%
87 | Cc1cnc(-c2nc(C3CCN(Cc4ccccc4O)CC3)no2)cn1 | -4.91%
88 | Cc1cnc(-c2nc(C3CCN(Cc4ccccc4Cl)CC3)no2)cn1 | -3.18%
89 | CS(=O)(=O)c1cc(Cl)cnc1C1CCN(C(=O)C2CCOCC2)CC1 | 9.7%
90 | Cc1nc[nH]c1CN(Cc1ccc(F)cc1)C1CC(C)(C)NC(C)(C)C1 | -2.59%
91 | Cn1cc(C2=NOC(C(=O)NC3(c4ccccc4F)CCCC3)C2)cn1 (configuration not stated) | 12.6%
92 | CS(=O)(=O)c1cc(Cl)cnc1C1CCN(C(=O)C2CC2)CC1 | -0.478%

Row | SMILES | cytotoxicity at 70.5 h
93 | Cc1ccc(S(=O)(=O)N2CC[C@@H]3C[C@H](NC(=O)c4ccncc4)[C@@H]32)cc1 | -2.83%
94 | Cc1ccc(S(=O)(=O)N2CC[C@@H]3C[C@H](NC(=O)c4[nH]ncc4Br)[C@@H]32)cc1 | -5.6%
95 | Cc1nn(C)cc1S(=O)(=O)NCC(c1ccccc1Cl)N1CCCC1 (configuration not stated) | -6.74%
96 | COc1ccc(CC(=O)N2CCN(Cc3ccco3)C[C@H]2C)cc1OC | -5.07%
97 | CCCn1cc(Cl)c(C(=O)N2C[C@H]3C[C@H](OC)C[C@H]3C2)n1 | 3.23%
98 | CCn1ncc(S(=O)(=O)N[C@@H]2CCC[C@@H](n3ccnc3)[C@@H]2O)c1C | -2.3%
99 | CC(=O)NCC(=O)NCC1(O)CCN(c2cnccn2)C1 (configuration not stated) | 15.9%
100 | Cc1nc(-c2c(C)noc2C)cc(C2CCN(CC(=O)N(C)C)CC2)n1 | 5.85%
101 | Cc1noc(C)c1-c1cccc(C2CCN(CC(=O)N(C)C)CC2)n1 | -2.68%
102 | O=C(c1cncs1)N1CCOCC(Cc2ccccn2)C1 (configuration not stated) | -2.59%
103 | Cc1ccc2nc(C(=O)N(C)[C@@H]3CC[C@@H](N4CCCC4)[C@@H]3O)cn2c1 | -3.38%
104 | CC(C)c1ccc(CC2(C)Cc3cc(CC(=O)O)ccc3O2)cc1 (configuration not stated) | 17.5%
105 | CC(CNCc1ccncc1)Oc1ccccn1 (configuration not stated) | -12.5%
106 | CCOC(=O)N1CCN(c2nc(NCCCO)c3ccccc3n2)CC1 | -21.9%
107 | CC(O)CNCc1ccc(OCc2ccc3c(c2)OCCO3)cc1 (configuration not stated) | 19.4%
108 | CNC(=O)CN1CC[C@H]2CN(C(=O)c3cccn3C)C[C@H]2C1 | -5.44%
109 | c1cncc(C2COC3(CCN(CC4CCOCC4)CC3)C2)c1 (configuration not stated) | 1.21%
110 | CCn1c(CN2CCCC(O)(c3ccc(F)cc3)CC2)cnc1SC (configuration not stated) | -5.35%
111 | CCn1c(CN2CCC(O)(c3ccc4c(c3)OCO4)CC2)cnc1SC | 1.92%
112 | COc1ccc(C2C3=C(COC3=O)Nc3[nH]nc(C)c32)cc1OC (configuration not stated) | -22.8%
